Results: patent US9139585B2 (Merck Sharp & Dohme Corp., priority 2011, dated 2015)
Like-named read-outs stand apart in the source and are kept apart here.

How the values were obtained:
[1] = molecular target: hROMK (hKir1.1) (Homo sapiens (Human), UniProt P48048); assay: Thallium Flux Assay (ROMK channel functional thallium flux, FLIPR-Tetra); type: cell-based
Experimental: Another ROMK functional assay makes use of the ability of thallium to permeate through open ROMK channels and increase the fluorescence of a dye previously loaded into the cells. Under control conditions, cells loaded with dye and exposed to thallium-containing medium display a time-dependent increase in fluorescence, the rate of which depends on number of functional channels. When cells are incubated in the presence of a channel inhibitor, the increase in fluorescence is attenuated in a concentration-dependent manner, and IC50 values of inhibition by compounds can be accurately determined. This assay has been established with cell lines expressing either human, or rat ROMK channels, and operates in 384-well format.
HEK293 cells stably expressing hROMK (hKir1.1) were grown at 37° C. in a 10% CO2 humidified incubator in complete growth media: Dulbecco's Modified Eagle Medium supplemented with non-essential amino acids, Penicillin/Streptomycin/Glutamine, G418 and FBS. At >80% confluency, the media was aspirated from the flask and the sample was rinsed with 10 ml Calcium/Magnesium-free PBS. […] To dislodge the cell, the side of the flask was gently banged with a hand. The cells were triturated completely and then transferred to 25 ml complete media. The sample was then centrifuged at 1,500 rpm for 6 minutes, followed by resuspension in complete growth media and then cell concentration was determined. […] Under ideal growth conditions and appropriate tissue culture practices, this cell line is stable for 40-45 passages.
FluxOR Kit Components (Invitrogen F10017)
• FluxOR™ Reagent (Component A) • FluxOR™ Assay Buffer (Component B)—10× Concentrate • PowerLoad™ Concentrate (Component C)—100× Concentrate • Probenecid (Component D)—Lyophilized sample is kept at −20° C. Water soluble, 100× after solubilization in 1 ml water. […] Store at 4° C. • Thallium sulfate (Tl2SO4) Concentrate (Component G)—50 mM in water. Store at 4° C. • DMSO (dimethyl sulfoxide, Component H)—1 ml (100%) Reagent Preparation— FluxOR Working Solutions • 1000× FluxOR™ Reagent: Reconstitute a vial of component A in 100 μl DMSO; Mix well; Store 10 μl aliquots at −20° C. • 1× FluxOR™ Assay Buffer: Dilute Component B 10-fold with water; Adjust pH to 7.4 with Hepes/NaOH; Filter and store at 4° C. • Probenecid/Assay Buffer: 100 ml of 1× FluxOR™ Assay Buffer; 1 ml of reconstituted component D; Store at 4° C. • Loading Buffer (per microplate): 10 μl 1000× FluxOR™ Reagent; 100 μl component C; 10 ml Probenecid/Assay Buffer • Compound Buffer (per microplate): 20 ml Probenecid/Assay Buffer; 0.3 mM ouabain (10 mM ouabain in water can be stored in amber bottle/aluminum foil at room temperature);
Test compound • 1× FluxOR™ Chloride-Free Buffer: Prepare 1× working solution in water. Can be stored at room temperature • Stimulant Buffer (prepared at 5× final concentration in 1× FluxOR™ Chloride-Free Buffer): 7.5 mM Thallium sulfate and 0.75 mM Potassium sulfate (to give a final assay concentration of 3 mM Thallium/0.3 mM Potassium). Store at 4° C. when not in use. If kept sterile, this solution is good for months. Assay Protocol—
The ROMK channel functional thallium flux assay is performed in 384 wells, using the FLIPR-Tetra instrument. HEK-hKir1.1 cells are seeded in Poly-D-Lysine microplates and kept in a 37° C.-10% CO2 incubator overnight. On the day of the experiment, the growth media is replaced with the FluxOR™ reagent loading buffer and incubated, protected from light, at ambient temperature (23-25° C.) for 90 min. The loading buffer is replaced with assay buffer±test compound followed by 30 min incubation at ambient temperature, where the Thallium/Potassium stimulant is added to the microplate.
• 1. Seed HEK-hKir1.1 cells (50 μl at 20,000 cells/well) in 384-well PDL coated Microplates • 2. Allow cells to adhere overnight in humidified 37° C./10% CO2 incubator • 3. Completely remove cell growth media from microplate and replace with 25 μl loading buffer • 4.

[2] = molecular target: Kir1.1 (ROMK1) (Homo sapiens (Human), UniProt P48048); assay: Electrophysiology Assay (whole cell voltage clamp, IonWorks Quattro); type: cell-based
Description: Several assays may be used to measure functional inhibition of the ROMK channel by compounds of the instant invention. One assay that can be used is an electrophysiology assay that measures the electrical current that is generated as potassium permeates through the channel.
Block of Kir1.1 (ROMK1) currents was examined by whole cell voltage clamp (Hamill et. al. Pfluegers Archives 391:85-100 (1981)) using the IonWorks® Quattro automated electrophysiology platform (Molecular Devices, Sunnyvale, Calif.). Chinese hamster ovary cells stably expressing Kir1.1 channels were maintained in T-75 flasks in cell culture media in a humidified 10% CO2 incubator at 37° C. Prior to an experiment, Kir1.1 expression was induced by overnight incubation with 1 mM sodium butyrate. On the day of the experiment, cells were dissociated with 2.5 ml of Versene™ (Invitrogen 15040-066) for approximately 6 minutes at 37° C. and suspended in 10 ml of bath solution containing (in mM): 150 NaCl, 10 KCl, 2.7 CaCl2, 0.5 MgCl2, 5 HEPES, pH 7.4. After centrifugation, the cell pellet was resuspended in approximately 4.0 ml of bath solution and placed in the IonWorks® instrument. The intracellular solution consisted of (in mM): 80 K gluconate, 40 KCl, 20 KF, 3.2 MgCl2, 3 EGTA, 5 Hepes, pH 7.4. Electrical access to the cytoplasm was achieved by perforation in 0.13 mg/ml amphotericin B for 4 minutes. Amphotericin B (Sigma A-4888) was prepared as a 40 mg/ml solution in DMSO.
Voltage protocols and current recordings were performed using the IonWorks® HT software/hardware system. Currents were sampled at 1 kHz. No correction for liquid junction potentials was used. The test pulse, consisting of a 100 ms step to 0 mV from a holding potential of −70 mV, followed by a 100 ms voltage ramp from −70 mV to +70 mV, was applied before and after a 6 minutes compound incubation period. Test compounds were prepared by diluting DMSO stock solutions into the bath solution at 3× the final concentration and placed in the instrument in 96-well polypropylene plates. Current amplitudes were measured using the IonWorks® software. To assess compound potency, the fractional block during the voltage step to 0 mV was calculated in Microsoft® Excel (Microsoft, Redmond, Calif.), and dose-response curves were fitted with Igor Pro 4.0 (WaveMetrics, Lake Oswego, Oreg.).

[3] = HEK293 cells stably expressing hROMK (hKir1.1), read-out: Thallium Flux Assay IC50
[4] = Chinese hamster ovary cells stably expressing Kir1.1, block during voltage step to 0 mV, read-out: EP Assay IC50

hROMK (hKir1.1), sequence (P48048 whole entry): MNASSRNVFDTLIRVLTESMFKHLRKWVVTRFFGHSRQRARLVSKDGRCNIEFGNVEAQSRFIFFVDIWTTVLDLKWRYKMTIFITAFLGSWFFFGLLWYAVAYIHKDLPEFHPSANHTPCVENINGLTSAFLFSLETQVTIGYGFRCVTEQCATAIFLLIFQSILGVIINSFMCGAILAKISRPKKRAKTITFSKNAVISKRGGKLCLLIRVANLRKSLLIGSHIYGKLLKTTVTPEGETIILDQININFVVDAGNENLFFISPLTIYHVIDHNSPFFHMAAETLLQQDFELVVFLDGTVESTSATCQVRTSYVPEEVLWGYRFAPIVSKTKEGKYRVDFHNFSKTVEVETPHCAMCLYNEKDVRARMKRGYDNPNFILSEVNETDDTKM
Kir1.1 (ROMK1), sequence (P48048 whole entry, species assumed): as the sequence (P48048 whole entry) above

Row | Compound | IC50 [1, 3] | IC50 [2, 4] | IC50 ([1]; Thallium Flux Assay IC50) | IC50 [2] | IC50 ([2]; read-out: EP Assay IC50)
1 | Cc1c([C@@H](O)CN2CCN(C[C@H](O)c3ccc4c(c3)C[C@@H](C)OC4=O)CC2)ccc2c1COC2=O (single isomer, unassigned) [Example 38B] | 33.4 nM | 29 nM |  |  | 
2 | Cc1c([C@@H](O)CN2CCN(C[C@H](O)c3ccc4c(c3)C[C@H](C)OC4=O)CC2)ccc2c1COC2=O (single isomer, unassigned) [Example 37B] | 48.5 nM | 31.5 nM |  |  | 
3 | Cc1c([C@@H](O)CN2C3COCC2CN(CC(O)c2ccc4c(c2)C[C@H](C)OC4=O)C3)ccc2c1COC2=O (single isomer, unassigned) [Example 23A] |  | 2460 nM | 461 nM |  | 
4 | Cc1cc(-n2cnnn2)ncc1[C@@H](O)CN1CCN(C[C@H](O)c2ccc3c(c2C)COC3=O)CC1 (single isomer, unassigned) [Example 35A] | 105 nM | 29 nM |  |  | 
5 | Cc1c([C@H](O)CN2CCN(CCc3ccc4c(c3)C[C@@H](C)OC4=O)CC2)ccc2c1COC2=O [Example 29, (R)-6-(2-(4-((S)-2-Hydroxy-2-(4-methyl-1-oxo-1,3-dihydroisobenzofuran-5-yl)ethyl)piperazin-1-yl)ethyl)-3-methylisochroman-1-one] | 185 nM | 145 nM |  |  | 
6 | Cc1c([C@@H](O)CN2CCN(C[C@@H](O)c3ccc4c(c3)CCS4(=O)=O)CC2)ccc2c1COC2=O (single isomer, unassigned) [Example 43A] | 52.3 nM | 95 nM |  |  | 
7 | Cc1c([C@@H](O)CN2C3COCC2CN(CC(O)c2ccc4c(c2)C[C@@H](C)OC4=O)C3)ccc2c1COC2=O (single isomer, unassigned) [Example 24B] |  |  | 36.1 nM | 66 nM | 
8 | Cc1c([C@@H](O)CN2CC3COCC(C2)N3CC(O)c2ccc(C#N)cn2)ccc2c1COC2=O (stereo partly drawn) [Example 20, 6-(1-Hydroxy-2-(7-((R)-2-hydroxy-2-(4-methyl-1-oxo-1,3-dihydroisobenzofuran-5-yl)ethyl)-3-oxa-7,9 diazabicyclo[3.3.1]nonan-9-yl)ethyl)nicotinonitrile] | 78 nM | 29.5 nM |  |  | 
9 | Cc1c([C@@H](O)CN2C3CCC2C2CCC3N2C(=O)c2ccc(-n3cnnn3)nc2)ccc2c1COC2=O [Example 13] |  |  | 985 nM |  | 130 nM
10 | Cc1c([C@@H](O)CN2CCN(CCc3ccc4c(c3)CCOC4=O)CC2)ccc2c1COC2=O [Example 30, (R)-6-(2-(4-(2-Hydroxy-2-(4-methyl-1-oxo-1,3-dihydroisobenzofuran-5-yl)ethyl)piperazin-1-yl)ethyl)isochroman-1-one] | 56 nM | 21 nM |  |  | 
11 | COc1cc(C(O)CN2C3CCC2C2CCC3N2C[C@H](O)c2ccc3c(c2C)COC3=O)ncc1C#N (single isomer, unassigned) [Example 6] | 26 nM | 21 nM |  |  | 
12 | Cc1nc(-n2cnnn2)ccc1[C@@H](O)CN1CCN(C[C@H](O)c2ccc3c(c2C)COC3=O)CC1 (single isomer, unassigned) [Example 36A] | 441 nM | 55 nM |  |  | 
13 | Cc1c([C@@H](O)CN2CCN(C[C@H](O)c3ccc4c(c3)C[C@@H](C)OC4=O)CC2)ccc2c1COC2=O (single isomer, unassigned) [Example 38A] | 68.5 nM | 17.5 nM |  |  | 
14 | COc1cc(C(O)CN2CCN(CC(O)c3ccc4c(c3)C[C@H](C)OC4=O)CC2)ncc1C#N (single isomer, unassigned) [Example 44A] | 704 nM | 151 nM |  |  | 
15 | Cc1c([C@@H](O)CN2C3COCC2CN(CC(O)c2ccc4c(c2)C[C@H](C)OC4=O)C3)ccc2c1COC2=O (single isomer, unassigned) [Example 23B] |  |  | 40.5 nM | 64 nM | 
16 | CCc1c(C(O)CN2CCN(CCc3ccc4c(c3)CCOC4=O)CC2)ccc2c1COC2=O (stereo not drawn) [Example 32, 6-(2-(4-(2-(4-Ethyl-1-oxo-1,3-dihydroisobenzofuran-5-yl)-2-hydroxyethyl)piperazin-1-yl)ethyl)isochroman-1-one] | 71 nM | 46 nM |  |  | 
17 | Cc1c([C@@H](O)CN2CC3COCC(C2)N3C[C@H](O)c2ccc3c(c2C)COC3=O)ccc2c1COC2=O [Example 18, 5,5′-(1R,1′R)-2,2′-(3-Oxa-7,9-diazabicyclo[3.3.1]nonane-7,9-diyl)bis(1-hydroxyethane-2,1-diyl)bis(4-methylisobenzofuran-1(3H)-one)] | 30.8 nM | 30 nM |  |  | 
18 | COc1cc(C(O)CN2CCN(CC(O)c3ccc4c(c3)C[C@H](C)OC4=O)CC2)ncc1C#N (single isomer, unassigned) [Example 44B] | 243 nM | 18 nM |  |  | 
19 | Cc1c([C@@H](O)CN2CC3CCC2CN3S(=O)(=O)c2ccc(-n3cnnn3)cc2)ccc2c1COC2=O (single isomer, unassigned) [Example 17A] | 508 nM | 170 nM |  |  | 
20 | Cc1c([C@@H](O)CN2CCN(CCc3ccc4c(c3)C[C@@H](C)OC4=O)CC2)ccc2c1COC2=O [Example 28, 4-[(2R)-2-Hydroxy-2-(4-methyl-1-oxo-1,3-dihydro-2-benzofuran-5-yl)ethyl]-1-{2-[(3R)-3-methyl-1-oxo-3,4-dihydro-1H-isochromen-6-yl]ethyl}piperazine] | 22 nM | 33 nM |  |  | 
21 | Cc1nc(-n2cnnn2)ccc1[C@@H](O)CN1CCN(C[C@H](O)c2ccc3c(c2C)COC3=O)CC1 (single isomer, unassigned) [Example 36B] | 171 nM | 24 nM |  |  | 
